Source: PMC10648852, “Molecular drivers of resistance to sulbactam-durlobactam in contemporary clinical isolates of Acinetobacter baumannii” (Antimicrobial Agents and Chemotherapy, 2023)
Where two headings read alike, the source gives them in different places.

Legend:
[1] = tested on: A. baumannii KAB1544 and efflux overexpression mutants; assay: Broth microdilution MIC, isogenic A. baumannii overexpression efflux mutants; type: cell-based; details: for MIC: Acinetobacter baumannii; for change in MIC values relative to the parent strain: most of the AdeR and AdeS mutants (AdeABC overexpression), KAB1544
Protocol: To further assess the role of efflux in SUL-DUR activity against Acinetobacter spp., two panels of A. baumannii isogenic strains were tested. The first consisted of 7 members of an A. baumannii transposon library ([28]) with single gene disruptions in the adeABC, adeIJK, or adeT loci as compared to the parent strain, AB5075. […] This panel of strains consists of four different point mutants in AdeR and five different point mutants in AdeS, which result in the upregulation of AdeABC expression. In addition, this panel contains chromosomal deletions of adeL and adeN, which result in overexpression of AdeFGH and AdeIJK, respectively ([29]).
In contrast, sulbactam, SUL-DUR, and imipenem MIC values were unaffected by these mutants (Table 4).
The AB5075 parent strain as well as transposon interrupted AdeABC, AdeIJK, and AdeT were purchased from the Manoil laboratory at the University of Washington from their arrayed transposon mutant collection ([28]). The KAB1544 parent as well as efflux pump regulator mutants and deletions were constructed as previously described ([29]).
Antimicrobial susceptibility testing was performed using broth microdilution following standardized methods established by the Clinical Laboratory Standards Institute (CLSI) ([35], [36]). Quality control testing was performed as specified by CLSI using A. baumannii NCTC 13304 ([35]). MIC values were interpreted using CLSI breakpoints for all antimicrobial agents except those for which CLSI breakpoints are not available ([35]). SUL-DUR was tested as twofold dilutions of sulbactam in combination with a fixed concentration of 4 µg/mL durlobactam ([35]).

[2] = tested on: 5,032 ABC clinical isolates; details: 5,032 ABC clinical isolates 2016-2021; durlobactam fixed at 4 µg/mL in SUL-DUR; cited from earlier work
[3] = AdeR A91V, AdeABC overexpressed, read-out: MIC
[4] = AdeR D20N, AdeABC overexpressed, read-out: MIC
[5] = AdeR E219A, AdeABC overexpressed, read-out: MIC
[6] = AdeR P116L, AdeABC overexpressed, read-out: MIC
[7] = AdeS A94V, AdeABC overexpressed, read-out: MIC
[8] = AdeS G30D, AdeABC overexpressed, read-out: MIC
[9] = AdeS G103D, AdeABC overexpressed, read-out: MIC
[10] = AdeS R152K, AdeABC overexpressed, read-out: MIC
[11] = AdeS T153M, AdeABC overexpressed, read-out: MIC
[12] = Parent (KAB1544), no efflux pump overexpressed, read-out: MIC

SMILES | MIC [1, 3] [µg/mL] | MIC [1, 4] [µg/mL] | MIC [1, 5] [µg/mL] | MIC [1, 6] [µg/mL] | MIC [1, 7] [µg/mL] | MIC [1, 8] [µg/mL] | MIC [1, 9] [µg/mL] | MIC [1, 10] [µg/mL] | MIC [1, 11] [µg/mL] | MIC [1, 12] [µg/mL] | MIC ([1]; ΔadeL, AdeFGH overexpressed) [µg/mL] | MIC ([1]; ΔadeN, AdeIJK overexpressed) [µg/mL] | change in MIC values relative to the parent strain [1] | MIC50 [2] [µg/mL] | MIC90 [2] [µg/mL]
C[C@@H](O)[C@H]1C(=O)N2C(C(=O)O)=C(SCCN=CN)C[C@H]12 [imipenem] | 0.5 | 0.5 | 0.25 | 0.5 | 0.5 | 0.5 | 0.25 | 0.5 | 0.5 | 0.25 | 0.25 | 0.25 | unaffected |  | 
CC1(C)[C@H](C(=O)O)N2C(=O)C[C@H]2S1(=O)=O [sulbactam] | 1 | 1 | 2 | 1 | 1 | 1 | 2 | 1 | 1 | 2 | 1 | 2 | unaffected | 8 | 32
